Data taken from publication PMC10536304 (2023).

Key:
[1] = test system: AU-RNA (poly A-poly U; rArU-RNA) (RNA, polymer) A/U; test: UV thermal melting, 260 nm; settings: Na+ (sodium cacodylate, I = 0.05 M); sodium cacodylate pH 7.0; r[compound]/[polynucleotide] = 0.1, polynucleotide 25 µM (phosphate); per base
[2] = test system: AU-RNA (poly A-poly U; rArU-RNA) (RNA, polymer) A/U; test: CD titration, Scatchard; settings: Na+ (sodium cacodylate, I = 0.05 M); sodium cacodylate pH 7.0, 25 °C; Scatchard n fixed 0.2 per phosphate; per base

For `c1cc2ccc3ccc(CNCCCNCCN(CCNCCCNCc4ccc5ccc6cccc7ccc4c5c67)CCNCCCNCc4ccc5ccc6cccc7ccc4c5c67)c4ccc(c1)c2c34`, the “∆Tm” value [1] was 3.7 ± 0.5 °C and the logKs [2] was 6.5 log(M^-1).
